Like-named read-outs stand apart in the source and are kept apart here.
Assays:
[1] = tested on: MV4;11 cells; assay: Cell viability assay (CellTiter-Glo) in MV4;11 cells; format: cell-based; conditions: read-out: MV4
Procedure, shortened: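 After three days' exposure to 3-fold serial compound dilutions (8 or 12 points), viability of cells seeded at 5000/well is read by CellTiter-Glo. Runs were done alone or combined with gilteritinib at 10 nM (MV4;11) or 20 nM (MOLM-13); IC50 from nonlinear regression.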

[2] = tested on: MOLM-13 cells; assay: Cell viability assay (CellTiter-Glo) in MOLM-13 cells; format: cell-based
[3] = Homo sapiens, MV4-11, 72 h, MV4;11 cells, compound alone, three days, 11 IC50
[4] = MV4;11 cells, with 10 nM gilteritinib, three days, 11 IC50 (nM) + 10 nM Gil
[5] = Homo sapiens, 72 h, MOLM-13 cells, compound alone, three days, read-out: MOLM-13 IC50
[6] = MOLM-13 cells, with gilteritinib, three days, read-out: MOLM-13 IC50 (nM) + 10 nM Gil
[7] = Homo sapiens, MV4-11, 72 h, 11 IC50 (nM)
[8] = 11 IC50 (nM) + 10 nM Gil, MV4;11 cells, with 10 nM gilteritinib, three days
[9] = Homo sapiens, MOLM-13, 72 h, read-out: MOLM-13 IC50 (nM)
[10] = read-out: MOLM-13 IC50 (nM) + 10 nM Gil, MOLM-13 cells, with gilteritinib, three days

Row | IC50 [1, 3] [nM] | IC50 [1, 4] [nM] | IC50 [2, 5] [nM] | IC50 [2, 6] [nM] | Structure (SMILES) | IC50 [1, 7] [nM] | IC50 [1, 8] [nM] | IC50 [2, 9] [nM] | IC50 [2, 10] [nM]
1 | 10 to 100 | 10 to 100 | 100 to 1000 | 10 to 100 | O=C1CCC(N2C(=O)c3ccc(NC[C@H]4C[C@H](n5cc(-c6ccc7cn[nH]c7n6)c(C6CC6)n5)C4)cc3C2=O)C(=O)N1 (stereo partly drawn) [GS-714, 5-(((Trans-3-(3-cyclopropyl-4-(1H-pyrazolo[3,4-b]pyridin-6-yl)-1H-pyrazol-1-yl)cyclobutyl)methyl)amino)-2-(2,6-dioxopiperidin-3-yl)isoindoline-1,3-dione] | – | – | – | –
2 | > 1000 | 100 to 1000 | > 1000 | – | Cc1nc(-c2cn([C@H]3C[C@H](COc4ccc5c(c4)C(=O)N(C4CCC(=O)NC4=O)C5=O)C3)nc2C2CC2)ccc1F (stereo partly drawn) [GS-715, 5-((Trans-3-(3-cyclopropyl-4-(5-fluoro-6-methylpyridin-2-yl)-1H-pyrazol-1-yl)cyclobutyl)methoxy)-2-(2,6-dioxopiperidin-3-yl)isoindoline-1,3-dione] | – | – | – | –
3 | > 1000 | – | > 1000 | – | Cc1nc(-c2cn([C@H]3C[C@H](CNc4cc5c(cc4F)C(=O)N(C4CCC(=O)NC4=O)C5=O)C3)nc2C2CC2)ccc1F (stereo partly drawn) [GS-716] | – | – | – | –
4 | < 10 | < 10 | 10 to 100 | < 10 | Cc1cc(F)cnc1-c1cn([C@H]2C[C@H](CNc3ccc4c(c3)C(=O)N(C3CCC(=O)NC3=O)C4=O)C2)nc1C1CC1 (stereo partly drawn) [GS-717, 5-(((Trans-3-(3-cyclopropyl-4-(5-fluoro-3-methylpyridin-2-yl)-1H-pyrazol-1-yl)cyclobutyl)methyl)amino)-2-(2,6-dioxopiperidin-3-yl)isoindoline-1,3-dione] | – | – | – | –
5 | > 1000 | – | > 1000 | – | O=C1CCC(N2C(=O)c3cc(F)c(NCCC[C@H]4C[C@H](n5cc(-c6cnc7ccccc7n6)c(C6CC6)n5)C4)cc3C2=O)C(=O)N1 (stereo partly drawn) [GS-718, 5-((3-(Trans-3-(3-cyclopropyl-4-(quinoxalin-2-yl)-1H-pyrazol-1-yl)cyclobutyl)propyl)amino)-2-(2,6-dioxopiperidin-3-yl)-6-fluoroisoindoline-1,3-dione] | – | – | – | –
6 | 10 to 100 | < 10 | 10 to 100 | < 10 | Cc1cc(F)cnc1-c1cn([C@H]2C[C@H](CNc3ccc4c(c3)C(=O)N(C3CCC(=O)NC3=O)C4=O)C2)nc1C(F)F (stereo partly drawn) [GS-719, 5-(((Trans-3-(3-(Difluoromethyl)-4-(5-fluoro-3-methylpyridin-2-yl)-1H-pyrazol-1-yl)cyclobutyl)methyl)amino)-2-(2,6-dioxopiperidin-3-yl)isoindoline-1,3-dione] | – | – | – | –
7 | 10 to 100 | 10 to 100 | 100 to 1000 | 10 to 100 | O=C1CCC(N2C(=O)c3ccc(NC[C@H]4C[C@H](n5cc(-c6ccc7[nH]ccc7n6)c(C6CC6)n5)C4)cc3C2=O)C(=O)N1 (stereo partly drawn) [GS-720, 5-(((Trans-3-(3-cyclopropyl-4-(1H-pyrrolo[3,2-b]pyridin-5-yl)-1H-pyrazol-1-yl)cyclobutyl)methyl)amino)-2-(2,6-dioxopiperidin-3-yl)isoindoline-1,3-dione] | – | – | – | –
8 | < 10 | < 10 | 10 to 100 | < 10 | O=C1CCC(N2C(=O)c3ccc(NC[C@H]4C[C@H](n5cc(-c6ccc7cc[nH]c7n6)c(C6CC6)n5)C4)cc3C2=O)C(=O)N1 (stereo partly drawn) [GS-721, 5-(((Trans-3-(3-cyclopropyl-4-(1H-pyrrolo[2,3-b]pyridin-6-yl)-1H-pyrazol-1-yl)cyclobutyl)methyl)amino)-2-(2,6-dioxopiperidin-3-yl)isoindoline-1,3-dione] | – | – | – | –
9 | 10 to 100 | < 10 | 10 to 100 | < 10 | Cn1ccc2ccc(-c3cn([C@H]4C[C@H](CNc5ccc6c(c5)C(=O)N(C5CCC(=O)NC5=O)C6=O)C4)nc3C3CC3)nc21 (stereo partly drawn) [GS-722, 5-(((trans-3-(3-cyclopropyl-4-(1-methyl-1H-pyrrolo[2,3-b]pyridin-6-yl)-1H-pyrazol-1-yl)cyclobutyl)methyl)amino)-2-(2,6-dioxopiperidin-3-yl)isoindoline-1,3-dione] | – | – | – | –
10 | 100 to 1000 | 10 to 100 | 100 to 1000 | 10 to 100 | Cc1nc(-c2cn(C3CC(F)(CNc4ccc5c(c4)C(=O)N(C4CCC(=O)NC4=O)C5=O)C3)nc2C2CC2)ccc1F (stereo not drawn) [GS-723, 5-(((Trans-3-(3-cyclopropyl-4-(5-fluoro-6-methylpyridin-2-yl)-1H-pyrazol-1-yl)-1-fluorocyclobutyl)methyl)amino)-2-(2,6-dioxopiperidin-3-yl)isoindoline-1,3-dione] | – | – | – | –
11 | < 10 | < 10 | 10 to 100 | < 10 | O=C1CCC(N2C(=O)c3ccc(NCCC4CC5(C4)CC(n4cc(-c6cnc7ccccc7n6)c(C6CC6)n4)C5)cc3C2=O)C(=O)N1 (stereo not drawn) [GS-724, 5-((2-(6-(3-Cyclopropyl-4-(quinoxalin-2-yl)-1H-pyrazol-1-yl)spiro[3.3]heptan-2-yl)ethyl)amino)-2-(2,6-dioxopiperidin-3-yl)isoindoline-1,3-dione] | – | – | – | –
12 | – | – | – | – | O=C1CCC(N2Cc3ccc(CC[C@H]4C[C@H](n5cc(-c6cnc7ccccc7n6)c(C6CC6)n5)C4)cc3C2=O)C(=O)N1 (stereo partly drawn) [GS-725, 3-(6-(2-(Trans-3-(3-cyclopropyl-4-(quinoxalin-2-yl)-1H-pyrazol-1-yl)cyclobutyl)ethyl)-1-oxoisoindolin-2-yl)piperidine-2,6-dione] | 100 to 1000 | 10 to 100 | > 1000 | 100 to 1000
13 | – | – | – | – | O=C1CCC(N2C(=O)c3ccc(NC[C@H]4C[C@H](n5cc6ccccc6n5)C4)cc3C2=O)C(=O)N1 (stereo partly drawn) [GS-727, 5-(((Trans-3-(2H-indazol-2-yl)cyclobutyl)methyl)amino)-2-(2,6-dioxopiperidin-3-yl)isoindoline-1,3-dione] | > 1000 | 100 to 1000 | > 1000 | 100 to 1000
14 | > 1000 | – | > 1000 | 10 to 100 | O=C1CCC(N2C(=O)c3ccc(NC[C@H]4C[C@H](n5ncc6ccccc65)C4)cc3C2=O)C(=O)N1 (stereo partly drawn) [GS-728, 5-(((Trans-3-(1H-indazol-1-yl)cyclobutyl)methyl)amino)-2-(2,6-dioxopiperidin-3-yl)isoindoline-1,3-dione] | – | – | – | –
15 | – | – | – | – | CC(C)n1ncc2ccc(-c3cn([C@H]4C[C@H](CNc5ccc6c(c5)C(=O)N(C5CCC(=O)NC5=O)C6=O)C4)nc3C3CC3)nc21 (stereo partly drawn) [GS-730, 5-(((Trans-3-(3-cyclopropyl-4-(1-isopropyl-1H-pyrazolo[3,4-b]pyridin-6-yl)-1H-pyrazol-1-yl)cyclobutyl)methyl)amino)-2-(2,6-dioxopiperidin-3-yl)isoindoline-1,3-dione] | 10 to 100 | 10 to 100 | 100 to 1000 | 10 to 100
16 | 100 to 1000 | 10 to 100 | > 1000 | 100 to 1000 | Cc1nc(-c2cn([C@H]3C[C@H](CNc4ccc5c(c4)C(=O)N(C4CCC(=O)NC4=O)C5)C3)nc2C2CC2)ccc1F (stereo partly drawn) [GS-732, 3-(6-(((Trans-3-(3-cyclopropyl-4-(5-fluoro-6-methylpyridin-2-yl)-1H-pyrazol-1-yl)cyclobutyl)methyl)amino)-1-oxoisoindolin-2-yl)piperidine-2,6-dione] | – | – | – | –
17 | < 10 | < 10 | < 10 | < 10 | O=C1CCC(N2C(=O)c3ccc(NC[C@H]4C[C@H](n5cc(-c6ncc(F)c7[nH]ccc67)c(C6CC6)n5)C4)cc3C2=O)C(=O)N1 (stereo partly drawn) [GS-733, 5-(((Trans-3-(3-cyclopropyl-4-(7-fluoro-1H-pyrrolo[3,2-c]pyridin-4-yl)-1H-pyrazol-1-yl)cyclobutyl)methyl)amino)-2-(2,6-dioxopiperidin-3-yl)isoindoline-1,3-dione] | – | – | – | –
18 | – | – | – | – | O=C1CCC(N2C(=O)c3ccc(NC[C@H]4C[C@H](n5cc(Cc6ccccc6)c(C6CC6)n5)C4)cc3C2=O)C(=O)N1 (stereo partly drawn) [GS-735, 5-(((Trans-3-(4-benzyl-3-cyclopropyl-1H-pyrazol-1-yl)cyclobutyl)methyl)amino)-2-(2,6-dioxopiperidin-3-yl)isoindoline-1,3-dione] | 10 to 100 | < 10 | 10 to 100 | < 10
19 | – | – | – | – | O=C1CCC(N2C(=O)c3ccc(NC[C@H]4C[C@H](n5cc(-n6ncc7ccccc76)c(C6CC6)n5)C4)cc3C2=O)C(=O)N1 (stereo partly drawn) [GS-736, 5-(((Trans-3-(3-cyclopropyl-4-(1H-indazol-1-yl)-1H-pyrazol-1-yl)cyclobutyl)methyl)amino)-2-(2,6-dioxopiperidin-3-yl)isoindoline-1,3-dione] | < 10 | < 10 | 10 to 100 | < 10
20 | – | – | – | – | CC(C)n1ccc2ccc(-c3cn([C@H]4C[C@H](CNc5ccc6c(c5)C(=O)N(C5CCC(=O)NC5=O)C6=O)C4)nc3C3CC3)nc21 (stereo partly drawn) [GS-737, 5-(((Trans-3-(3-cyclopropyl-4-(1-isopropyl-1H-pyrrolo[2,3-b]pyridin-6-yl)-1H-pyrazol-1-yl)cyclobutyl)methyl)amino)-2-(2,6-dioxopiperidin-3-yl)isoindoline-1,3-dione] | 10 to 100 | 10 to 100 | 100 to 1000 | 10 to 100
21 | – | – | – | – | O=C1CCC(N2C(=O)c3ccc(NC[C@H]4C[C@H](n5cc(-n6ccc7ccccc76)c(C6CC6)n5)C4)cc3C2=O)C(=O)N1 (stereo partly drawn) [GS-738, 5-(((Trans-3-(3-cyclopropyl-4-(1H-indol-1-yl)-1H-pyrazol-1-yl)cyclobutyl)methyl)amino)-2-(2,6-dioxopiperidin-3-yl)isoindoline-1,3-dione] | 10 to 100 | 10 to 100 | 100 to 1000 | 10 to 100

— patent US20250221988A1 (Cullgen (Shanghai), Inc., priority 2022, published 2025)
